The text below walks through data of EP2084165B1, “POSITIVELY CHARGED WATER-SOLUBLE PRODRUGS OF OXICAMS AND RELATED COMPOUNDS WITH VERY HIGH SKIN PENETRATION RATE” (Techfields Biochem Co. Ltd, priority 2006, dated 2008).

The nature of data set [1]: in vivo. The note with it: mouse, topical or ocular. As for the experimental part:
The donor consisted of a 20% solution of these compounds in 1 mL of isopropanol applied to a 10 cm^2 on the backs of the hairless mice. Plasma levels of drugs were determined by a specific high-performance liquid chromatography method.

The nature of data set [2]: Acute toxicity, LD50 orally in mice. In kind it is in vivo. The conditions noted are these: mouse, in vivo. The source says:
(§1) The acute toxicity of the prodrugs was investigated. […].

Data set [3] is described as follows: Solubility in water. The note with it: for solubility: water, solubility in water.
Data set [4] has as its system mice. The data set can be described thus: Acute toxicity, LD50 orally in mice. It is filed as in vivo. The conditions noted are these: oral, mice.
Source text: as §1

In data set [5] the test system is mice. The data set can be described thus: Analgesic activity: acetic acid writhing test in mice. The conditions noted are these: for No. of Writhings: 50 mg/kg transdermally 60 minutes before acetic acid solution intraperitoneally, control group 35.0; for Rate of Inhibition (%): 50 mg/kg transdermally 60 minutes before acetic acid solution, based on the control group. It is filed as in vivo. As for the experimental part:
The number of writhings that occurred when mice were administered an acetic acid solution intraperitoneally were counted, and the rate of inhibition based on the control group was calculated. […] The group A is the control group.

Data set [6] concerns Rats. The data set can be described thus: Antipyretic activity: rats given sterilized E. coli suspension as pyrogen. The note with it: 25 mg/kg transdermally 2 hours after E. coli pyrogen, in °C (unit assumed). In kind it is in vivo. As for the experimental part:
Antipyretic activity: Rats received a sterilized E. coli suspension as a pyrogen. […] The body temperature of the rats was taken at 90 min. intervals before and after the administration of the test compounds.

The conditions of data set [7]: prodrug versus the drug itself (testosterone); cited from earlier work.
Where [8] appears, read: oral, mice, read-out: LD50 orally in mice.

In general, Cmax refers to the maximum level reached in the sampled fluid or tissue. As usually defined, the Tmax is the time at which the peak concentration occurs. For orientation: LD50 means the dose at which mortality reaches 50%. In general, solubility refers to the concentration that dissolves in the medium under given conditions. Low values mean little dissolved substance, high ones much dissolved substance.

Structures can show the parent of a compound that is named as a salt. Where two headings read alike, the source gives them in different places. Where only a bound is given, the exact number is not on record here.

On to `CN(C)CCCC(=O)OC1=C(C(=O)Nc2ccccn2)N(C)S(=O)(=O)c2ccsc21`, for which, in data set [1], the peak concentration (Cmax) was roughly 500 µg/mL and the time of peak concentration (Tmax) is roughly 50 min. The 50% lethal dose (LD50) in data set [2] (po) turned out to be 500 mg/kg. In data set [3], the solubility is greater than 300 mg/mL.

On to `CN(C)CCCC(=O)OC1=C(C(=O)Nc2ccccn2)N(C)S(=O)(=O)c2ccccc21`, for which, in data set [1], the Cmax is roughly 500 µg/mL and the Tmax is roughly 50 min. Also, the LD50 in data set [2] (po) was determined as 550 mg/kg. This molecule came in with a solubility in data set [3] greater than 300 mg/mL.

As to `Cc1cnc(NC(=O)C2=C(OC(=O)CCCN(C)C)c3ccccc3S(=O)(=O)N2C)s1.Cl`, the “time until peak plasma levels were reached after application of the donor systems” value in data set [1] is roughly 50 min.

`CN(C)CCCC(=O)OC1=C(C(=O)Nc2ccccn2)N(C)S(=O)(=O)c2cc(Cl)sc21`: in data set [1], the Cmax is roughly 500 µg/mL and the Tmax was roughly 50 min. For the same molecule, the LD50 in data set [2] (po) is 580 mg/kg. The solubility in data set [3] is greater than 300 mg/mL.

For `CN(C)CCCC(=O)OC(Nc1ccccn1)=C1C(=O)c2sc(Cl)cc2S(=O)(=O)N1C`, in data set [1], the maximum concentration (Cmax) is roughly 500 µg/mL and the time to peak (Tmax) was roughly 50 min. Further, the median lethal dose (LD50) in data set [2] (po) is 610 mg/kg. This molecule came in with a solubility in data set [3] greater than 300 mg/mL.

On to `CN(C)CCCC(=O)OC1=C(C(=O)Nc2nccs2)N(C)S(=O)(=O)c2ccccc21`, for which the time to peak (Tmax) in data set [1] is roughly 50 min. The molecule further showed an LD50 in data set [2] (po) of 670 mg/kg.

For the molecule “4- N,N-dimethylaminobutyryloxy - 2-methyl-N-[5-Methyl-3-isoxolyl-2H-1,2-benzothiazine-3-carboxamide 1,1-dioxide] .HCl [G]”, in data set [1], the peak plasma levels was roughly 0.5 mg/mL and the “time until peak plasma levels were reached after application of the donor systems” value is roughly 50 min. Besides, the “LD50 orally in mice” value in data set [4] came out at 570 mg/kg. Moreover, in data set [5], the “No. of Writhings” value was 15.8 and the “Rate of Inhibition (%)” value was 55%. For the same molecule, in data set [6], the “body temperature of the rats, t = 0 min.” value is reported as 37.52±0.06; the “body temperature of the rats, t = 90 min.” value is 36.62±0.07; the “body temperature of the rats, t = 180 min.” value is recorded as 36.53±0.06; the “body temperature of the rats, t = 270 min.” value is listed as 36.60±0.05.

As to `CN(C)CCCC(=O)OC1=C(C(=O)Nc2ccccn2)N(C)S(=O)(=O)c2ccccc21` [B, 4-N,N-dimethylaminobutyryloxy-2-methyl-N-2-pyridinyl-2H,1,2-benzothiazine-3-carb oxamide 1,1-dioxide.HCl], in data set [5], the “No. of Writhings” value is listed as 15.6 and the “Rate of Inhibition (%)” value was found to be 55%. In data set [6], the “body temperature of the rats, t = 0 min.” value worked out at 37.57±0.06; the “body temperature of the rats, t = 90 min.” value is listed as 36.51±0.05; the “body temperature of the rats, t = 180 min.” value is 36.40±0.06; the “body temperature of the rats, t = 270 min.” value is listed as 36.45±0.07. In data set [3], the solubility in water was determined as 250 mg/mL.

In data set [1], `CN(C)CCCC(=O)OC1=C(C(=O)Nc2nccs2)N(C)S(=O)(=O)c2ccccc21` [C, N-(2-thiazoyl)-4-N,N-dimethylaminobutyryloxy-2-methyl-2H,1,2-benzothiazine-3-carbo xamide 1,1-dioxide.HCl] displayed a Cmax of roughly 500 µg/mL. Further, in data set [5], the “No. of Writhings” value is reported as 15.7 and the “Rate of Inhibition (%)” value was 55%. In data set [6], the “body temperature of the rats, t = 0 min.” value stood at 37.50±0.07; the “body temperature of the rats, t = 90 min.” value stood at 36.61±0.04; the “body temperature of the rats, t = 180 min.” value worked out at 36.50±0.07; the “body temperature of the rats, t = 270 min.” value is recorded as 36.60±0.05. In addition, in data set [3] (listed as N-(2-thiazolyl)-4-N,N-dimethylaminobutyryloxy-2-methyl-2H,1,2-benzothiazine-3-ca), the solubility in water came to 250 mg/mL. This molecule registered a solubility in data set [3] greater than 300 mg/mL.

`CN(C)CCCC(=O)OC1=C(C(=O)Nc2ccccn2)N(C)S(=O)(=O)c2cc(Cl)sc21` [Compound D, 6-chloro-4-N,N-dimethylaminobutyryloxy-2-methyl-N-2-pyridinyl-2H-thieno[2,3-e]-1 ,2-thiazine-3-carboxamide 1,1-dioxide.HCl]: in data set [5], the “No. of Writhings” value was 16.5 and the “Rate of Inhibition (%)” value is given as 53%. In addition, in data set [6], the “body temperature of the rats, t = 0 min.” value is on record as 37.55±0.05; the “body temperature of the rats, t = 90 min.” value turned out to be 36.66±0.06; the “body temperature of the rats, t = 180 min.” value is listed as 36.60±0.06; the “body temperature of the rats, t = 270 min.” value came out at 36.61±0.07. The molecule also registered a solubility in water in data set [3] of 250 mg/mL.

On to `CN(C)CCCC(=O)OC1=C(C(=O)Nc2ccccn2)N(C)S(=O)(=O)c2ccsc21` [E, 4-N,N-dimethylaminobutyryloxy-2-methyl-N-2-pyridinyl-2H-thieno[2,3-e]-1,2-thiazine-3-carboxamide 1,1-dioxide.HCl], for which, in data set [5], the “No. of Writhings” value is reported as 16.9 and the “Rate of Inhibition (%)” value came out at 53%. In data set [6], the “body temperature of the rats, t = 0 min.” value worked out at 37.54±0.06; the “body temperature of the rats, t = 90 min.” value is recorded as 36.61±0.06; the “body temperature of the rats, t = 180 min.” value stood at 36.58±0.08; the “body temperature of the rats, t = 270 min.” value is 36.55±0.05. In data set [3], the solubility in water came to 250 mg/mL.

On to `CN(C)CCCC(=O)OC(Nc1ccccn1)=C1C(=O)c2sc(Cl)cc2S(=O)(=O)N1C.Cl` [F, 8-chloro-(4-N,N-dimethylaminobutyryloxy-pyridine-2-ylamino-methylidene)-3-methy 1-2,2-dioxo-2λ^6'7-dithia-3-azabicyclo[4,3,0]nona-8,10-dien-5-one.HCl], for which, in data set [5], the “No. of Writhings” value stood at 17.5 and the “Rate of Inhibition (%)” value came to 50%. In data set [6], the “body temperature of the rats, t = 0 min.” value amounted to 37.53±0.05; the “body temperature of the rats, t = 90 min.” value is on record as 36.57±0.05; the “body temperature of the rats, t = 180 min.” value was determined as 36.52±0.07; the “body temperature of the rats, t = 270 min.” value came out at 36.51±0.06.

The molecule `Cc1cnc(NC(=O)C2=C(OC(=O)CCCN(C)C)c3ccccc3S(=O)(=O)N2C)s1` [H, 4-N,N-dimethylaminobutyryloxy-2-methyl-N-(5-methyl-2-thiazolyl)-2H-1,2-benzothiazine-3-carboxamide-1,1-dioxide.HCl] had a Cmax in data set [1] of roughly 500 µg/mL. Also, the LD50 in data set [2] (setting [8]) was 590 mg/kg. In data set [5], the “No. of Writhings” value is given as 18.2 and the “Rate of Inhibition (%)” value is recorded as 48%. For the same molecule, in data set [6], the “body temperature of the rats, t = 0 min.” value came out at 37.57±0.07; the “body temperature of the rats, t = 90 min.” value was determined as 36.53±0.08; the “body temperature of the rats, t = 180 min.” value was 36.52±0.08; the “body temperature of the rats, t = 270 min.” value was found to be 36.50±0.07.

For the molecule `CN1C(C(=O)Nc2ccccn2)=C(O)c2ccccc2S1(=O)=O` [Piroxicam, reference compound], the Cmax in data set [1] was roughly 5 µg/mL. The LD50 in data set [2] (setting [8]) amounted to 360 mg/kg.

Take `CN(C)CCCC(=O)O[C@H]1CC[C@H]2[C@@H]3CCC4=CC(=O)CC[C@]4(C)[C@H]3CC[C@]12C.Cl` [TSBH, testosteronyl-4-dimethylaminobutyrate.HCl]: the “diffuses through human skin faster than does the drug itself” value in data set [7] is given as ~ 60 times.

With `CN1C(C(=O)Nc2nccs2)=C(O)c2ccccc2S1(=O)=O` [sudoxiam, reference compound], in data set [1], the peak plasma levels was roughly 0.005 mg/mL.
